In patent publication US9855230B2 (ViiV Healthcare UK (No. 5) Limited, priority 2014, dated 2018):
Where a name gives a salt, the structure may show the parent alone. Read-outs that look alike come from different tables or passages of the source.

What was measured:
[1] = system: recombinant NL4-3 virus (nef section replaced with Renilla luciferase gene) in MT-2 cells; assay: whole plant or invertebrate; assay type: cell-based, HIV; conditions: NL43, luciferase activity in MT-2 cells infected 4-5 days with recombinant NL4-3 virus
Description: A recombinant NL4-3 proviral clone, in which a section of the nef gene was replaced with the Renilla luciferase gene, was used to make the reference virus used in these studies.
Supernatent was harvested after 2-3 days and the amount of virus present was titered in MT-2 cells using luciferase enzyme activity as a marker by measuring luciferase enzyme activity. Luciferase was quantitated using the EnduRen Live Cell Substrate from Promega (Madison, Wis.). Antiviral activities of compounds toward the recombinant virus were quantified by measuring luciferase activity in MT-2 cells infected for 4-5 days with the recombinant virus in the presence of serial dilutions of the compound.

[2] = Compound cytotoxicity (CC50), XTT-based colorimetric assay; assay type: cell-based; conditions: human; uninfected MT2 cells, day 4, XTT assay
Method: Compound cytotoxicity and the corresponding CC50 values were determined using the same protocol as described in the antiviral assay except that uninfected cells were used. Cytotoxicity was assessed on day 4 in uninfected MT2 cells by using a XTT (2,3-bis[2-Methoxy-4-nitro-5-sulfophenyl]-2H-tetrazolium-5-carboxyanilide inner salt)-based colorimetric assay (Sigma-Aldrich, St Louis, Mo.).

SMILES | EC50 ([1]; read-out: Activity) [nM] | EC50 ([1]; read-out: EC50) [nM] | CC50 at 4 day [2] [nM]
COc1ccc(-n2ccnc2C(Cc2cc(F)cc(F)c2)NC(=O)NS(=O)(=O)c2ccccc2F)cc1 (racemic) [Example 84, (rac)-N-((2-(3,5-difluorophenyl)-1-(1-(4-methoxyphenyl)-1H-imidazol-2-yl)ethyl)carbamoyl)-2-fluorobenzenesulfonamide] | 100 to 1000 | 690 | > 100000
COc1ccc(-c2c(C(Cc3ccccc3)NC(=O)NS(=O)(=O)c3ccccc3C)nnn2C)cc1 (racemic) [Example 87, (rac)-N-((1-(5-(4-methoxyphenyl)-1-methyl-1H-1,2,3-triazol-4-yl)-2-phenylethyl)carbamoyl)-2-methylbenzenesulfonamide] | 100 to 1000 | 220 | > 100000
O=C(NC(Cc1ccccc1)c1ncccc1-c1ccc2ccncc2c1)NS(=O)(=O)c1ccccc1Cl (stereo in doubt) [Example 108, (S)-2-chloro-N-((1-(3-(isoquinolin-7-yl)pyridin-2-yl)-2-phenylethyl)carbamoyl)benzenesulfonamide, 2 TFA] | > 1000 | 20000 | > 100000
O=C(NC(Cc1cc(F)cc(F)c1)c1ncccc1Br)NS(=O)(=O)c1ccccc1Cl (stereo in doubt) [Example 113, (S)-N-((1-(3-bromopyridin-2-yl)-2-(3,5-difluorophenyl)ethyl)carbamoyl)-2-chlorobenzenesulfonamide, TFA] | > 1000 |  | > 100000
COc1ccc(-c2cccnc2C(Cc2cc(F)cc(F)c2)NC(=O)NS(=O)(=O)c2ccccc2Cl)cc1 (stereo in doubt) [Example 114, (S)-2-chloro-N-((2-(3,5-difluorophenyl)-1-(3-(4-methoxyphenyl)pyridin-2-yl)ethyl)carbamoyl)benzenesulfonamide, TFA] | > 1000 | 34400 | > 100000
COc1ccc(-n2ccnc2[C@H](Cc2ccccc2)NC(=O)NS(=O)(=O)c2ccccc2C)cc1 [Example 1, (S)-N-((1-(1-(4-methoxyphenyl)-1H-imidazol-2-yl)-2-phenylethyl)carbamoyl)-2-methylbenzene-sulfonamide] | < 100 |  | > 100000
COC(=O)Nc1ccc(-n2ccnc2[C@H](Cc2ccccc2)NC(=O)NS(=O)(=O)c2ccccc2C)cc1 [Example 2, (S)-methyl (4-(2-(2-phenyl-1-(3-(o-tolylsulfonyl)ureido)ethyl)-1H-imidazol-1-yl)phenyl)carbamate] | < 100 |  | > 100000
COC(=O)Nc1ccc(-n2ccnc2[C@H](Cc2ccccc2)NC(=O)NS(=O)(=O)c2cccc3ccccc23)cc1 [Example 3, (S)-methyl (4-(2-(1-(3-(naphthalen-1-ylsulfonyl)ureido)-2-phenylethyl)-1H-imidazol-1-yl)phenyl)carbamate] | 100 to 1000 | 100 | > 100000
Cc1ccccc1S(=O)(=O)NC(=O)N[C@@H](Cc1ccccc1)c1nccn1-c1cccc(-n2cccc2)c1 [Example 4, (S)-N-((1-(1-(3-(1H-pyrrol-1-yl)phenyl)-1H-imidazol-2-yl)-2-phenylethyl)carbamoyl)-2-methyl-benzenesulfonamide] | > 1000 |  | > 100000
Cc1ccccc1S(=O)(=O)NC(=O)N[C@@H](Cc1ccccc1)c1nccn1-c1ccc(F)cc1 [Example 5, (S)-N-((1-(1-(4-fluorophenyl)-1H-imidazol-2-yl)-2-phenylethyl)carbamoyl)-2-methylbenzenesulfonamide] | 100 to 1000 |  | > 100000
COc1ccc(-n2ccnc2[C@H](Cc2ccccc2)NC(=O)NS(=O)(=O)c2ccccc2Cl)cc1 [Example 6, (S)-2-chloro-N-((1-(1-(4-methoxyphenyl)-1H-imidazol-2-yl)-2-phenylethyl)carbamoyl)benzenesulfonamide] | < 100 | 50 | > 100000
CCOc1ccc(-n2ccnc2[C@H](Cc2ccccc2)NC(=O)NS(=O)(=O)c2ccccc2C)cc1 [Example 7, (S)-N-((1-(1-(4-ethoxyphenyl)-1H-imidazol-2-yl)-2-phenylethyl)carbamoyl)-2-methylbenzenesulfonamide] | < 100 |  | > 100000
COc1ccc(-n2ccnc2[C@H](Cc2ccccc2)NC(=O)NS(=O)(=O)c2ccccc2C)c(C)c1 [Example 8, (S)-N-((1-(1-(4-methoxy-2-methylphenyl)-1H-imidazol-2-yl)-2-phenylethyl)carbamoyl)-2-methylbenzenesulfonamide] | 100 to 1000 |  | > 100000
COc1cccc(-n2ccnc2[C@H](Cc2ccccc2)NC(=O)NS(=O)(=O)c2ccccc2C)c1 [Example 9, (S)-N-((1-(1-(3-methoxyphenyl)-1H-imidazol-2-yl)-2-phenylethyl)carbamoyl)-2-methylbenzenesulfonamide] | < 100 | 50 | > 100000
COc1ccc(-n2ccnc2[C@H](Cc2ccccc2)NC(=O)NS(=O)(=O)c2ccccc2C)cc1OC [Example 10, (S)-N-((1-(1-(3,4-dimethoxyphenyl)-1H-imidazol-2-yl)-2-phenylethyl)carbamoyl)-2-methylbenzenesulfonamide] | < 100 |  | > 100000
Cc1ccccc1S(=O)(=O)NC(=O)N[C@@H](Cc1ccccc1)c1nccn1-c1ccc(OC(F)(F)F)cc1 [Example 11, (S)-2-methyl-N-((2-phenyl-1-(1-(4-(trifluoromethoxy)phenyl)-1H-imidazol-2-yl)ethyl)carbamoyl)benzenesulfonamide] | < 100 |  | 59000
Cc1ccccc1S(=O)(=O)NC(=O)N[C@@H](Cc1ccccc1)c1nccn1-c1cccc(Cl)c1 [Example 12, (S)-N-((1-(1-(3-chlorophenyl)-1H-imidazol-2-yl)-2-phenylethyl)carbamoyl)-2-methylbenzenesulfonamide] | < 100 | 50 | > 100000
Cc1ccc(-n2ccnc2[C@H](Cc2ccccc2)NC(=O)NS(=O)(=O)c2ccccc2C)cc1 [Example 13, (S)-2-methyl-N-((2-phenyl-1-(1-(p-tolyl)-1H-imidazol-2-yl)ethyl)carbamoyl)benzenesulfonamide] | < 100 |  | > 100000
Cc1ccccc1S(=O)(=O)NC(=O)N[C@@H](Cc1ccccc1)c1nccn1-c1ccc(Cl)cc1 [Example 14, (S)-N-((1-(1-(4-chlorophenyl)-1H-imidazol-2-yl)-2-phenylethyl)carbamoyl)-2-methylbenzenesulfonamide] | 100 to 1000 |  | > 100000
Cc1ccccc1S(=O)(=O)NC(=O)N[C@@H](Cc1ccccc1)c1nccn1-c1ccc(Br)cc1 [Example 15, (S)-N-((1-(1-(4-bromophenyl)-1H-imidazol-2-yl)-2-phenylethyl)carbamoyl)-2-methylbenzenesulfonamide] | 100 to 1000 | 190 | > 100000
COc1ccccc1-n1ccnc1[C@H](Cc1ccccc1)NC(=O)NS(=O)(=O)c1ccccc1C [Example 16, (S)-N-((1-(1-(2-methoxyphenyl)-1H-imidazol-2-yl)-2-phenylethyl)carbamoyl)-2-methylbenzenesulfonamide] | > 1000 |  | > 100000
C=CCOc1cccc(-n2ccnc2[C@H](Cc2ccccc2)NC(=O)NS(=O)(=O)c2ccccc2C)c1 [Example 17, (S)-N-((1-(1-(3-(allyloxy)phenyl)-1H-imidazol-2-yl)-2-phenylethyl)carbamoyl)-2-methylbenzenesulfonamide] | 100 to 1000 |  | > 33000
Cc1ccccc1S(=O)(=O)NC(=O)N[C@@H](Cc1ccccc1)c1nccn1-c1ccc2c(c1)CCO2 [Example 18, (S)-N-((1-(1-(2,3-dihydrobenzofuran-5-yl)-1H-imidazol-2-yl)-2-phenylethyl)carbamoyl)-2-methylbenzenesulfonamide] | < 100 | 10 | > 100000
Cc1ccccc1S(=O)(=O)NC(=O)N[C@@H](Cc1ccccc1)c1nccn1-c1cccc(OC(F)(F)F)c1 [Example 19, (S)-2-methyl-N-((2-phenyl-1-(1-(3-(trifluoromethoxy)phenyl)-1H-imidazol-2-yl)ethyl)carbamoyl)benzenesulfonamide] | 100 to 1000 |  | > 33000
Cc1ccccc1S(=O)(=O)NC(=O)N[C@@H](Cc1ccccc1)c1nccn1-c1cccc(Br)c1 [Example 20, (S)-N-((1-(1-(3-bromophenyl)-1H-imidazol-2-yl)-2-phenylethyl)carbamoyl)-2-methylbenzenesulfonamide] | < 100 |  | > 33000
Cc1ccccc1S(=O)(=O)NC(=O)N[C@@H](Cc1ccccc1)c1nccn1-c1ccc(OC(C)C)cc1 [Example 21, (S)-N-((1-(1-(4-isopropoxyphenyl)-1H-imidazol-2-yl)-2-phenylethyl)carbamoyl)-2-methylbenzenesulfonamide] | < 100 | 50 | > 100000
Cc1ccccc1S(=O)(=O)NC(=O)N[C@@H](Cc1ccccc1)c1nccn1-c1ccc2c(c1)OCCO2 [Example 22] | 100 to 1000 |  | > 100000
Cc1cccc(-n2ccnc2[C@H](Cc2ccccc2)NC(=O)NS(=O)(=O)c2ccccc2C)c1 [Example 23, (S)-2-methyl-N-((2-phenyl-1-(1-(m-tolyl)-1H-imidazol-2-yl)ethyl)carbamoyl)benzenesulfonamide] | < 100 |  | > 100000
